Measured values published in US9233143B2, “Medicinal agent for preventing exacerbation of malignant tumor, comprising combination of natriuretic peptide receptor GC-A and GC-B agonists” (National Cerebral and Cardiovascular Center, priority 2011, dated 2016).

Columns and labels:
[1] = test system: cancer-associated fibroblasts (CAFs); experiment: Changes in the intracellular cGMP level in response to natriuretic peptide stimulus, CAFs; format: cell-based, human; details: 1×10^−11 M to 1×10^−6 M, 10 minutes, FIG. 1B
Procedure: For obtaining CAFs (cancer-associated fibroblasts), tissue harvested from a patient having lung cancer surgery was subjected to primary culture after the consent of the patient was obtained. The cells were then cultured in DMEM culture medium containing 10% FCS under 5% CO2 at 37° C., and the cells of the 5th and earlier passages were used.
The A549 cells were cultured in a 24-well dish at 4×10^4 cells/well, and the culture medium was replaced with DMEM culture medium free from FCS the next day. The CAFs were cultured in a 24-well dish at 1×10^4 cells/well, and the culture medium was replaced with DMEM culture medium containing 1% FCS the next day.
To these culture media, solutions of hANP, hBNP, and hCNP-22 (final concentration: ten-fold serial dilution from 1×10^−11 M to 1×10^−6 M, the same amount of physiological saline was used as a control) were separately added. After 10 minutes had passed, 400 μL of cooled 70% ethanol (containing 0.1 N hydrochloric acid) was added, and ultrasonication was performed for a short time. The treated solution was lyophilized, and the cGMP level was measured using Cyclic GMP Assay kit (made by Yamasa Corp.).

[2] = test system: A549 cells and CAFs; experiment: Mouse models having transplanted cancer cells and CAFs, administration started after tumor tissue was established (Example 6); format: in vivo; details: hANP alone 0.5 μg/kg/min, started 2 weeks after transplantation, 4 weeks, FIG. 10
Procedure: In this Example and Example 6, 5-week-old male immunodeficient mice (KSN mice, Japan SLC, Inc.) were used. The osmotic pumps used were MODEL2004 (for 28-day administration) made by ALZET (Cupertino, Calif.). A mixed suspension of the A549 cells and the CAFs was prepared using DMEM free from FBS so as to contain the A549 cells at 1×10^6 cells/100 μL and the CAFs at 0.5×10^6 cells/100 μL. The mixed suspension in an amount of 100 μL per mouse was subcutaneously injected in the back of the immunodeficient mice. […] After 2 weeks of observation from the injection of the cell suspension, the mice to which the mixed suspension had been injected were randomly divided into 4 groups (control group, ANP group, CNP group, and ANP+CNP group), and an osmotic pump appropriately adjusted for each group as shown below was subcutaneously implanted to start administration. • Control group and A549 group: physiological saline was administered • ANP group: hANP was administered at 0.5 μg/kg/min • CNP group: hCNP-22 was administered at 2.5 μg/kg/min • ANP+CNP group: hANP was administered at 0.5 μg/kg/min and hCNP-22 was administered at 2.5 μg/kg/min Observation was further continued for 4 weeks after the start of administration, the tumor size at the cell injection site was measured weekly, and tumor volume was calculated in the same way as in Example 5 (FIG. 10).

SMILES: CC[C@H](C)[C@@H]1NC(=O)[C@H](CCCNC(=N)N)NC(=O)[C@H](CC(=O)O)NC(=O)[C@H](CCSC)NC(=O)[C@H](CCCNC(=N)N)NC(=O)CNC(=O)CNC(=O)[C@H](Cc2ccccc2)NC(=O)[C@@H](NC(=O)[C@H](CO)NC(=O)[C@H](CO)NC(=O)[C@H](CCCNC(=N)N)NC(=O)[C@H](CCCNC(=N)N)NC(=O)[C@H](CC(C)C)NC(=O)[C@@H](N)CO)CSSC[C@@H](C(=O)N[C@@H](CC(N)=O)C(=O)N[C@@H](CO)C(=O)N[C@@H](Cc2ccccc2)C(=O)N[C@@H](CCCNC(=N)N)C(=O)N[C@@H](Cc2ccc(O)cc2)C(=O)O)NC(=O)CNC(=O)[C@H](CC(C)C)NC(=O)CNC(=O)[C@H](CO)NC(=O)[C@H](CCC(N)=O)NC(=O)[C@H](C)NC(=O)CNC1=O [hANP]
- cGMP level of the CAFs [1]: did not show such an action
- tumor growth as compared with the control group [2]: showed an effect of tumor growth suppression
